ChEMBL document CHEMBL1201861, “Genomics of Drug Sensitity in Cancer screening data, Wellcome Trust Sanger Institute”

Test system: LB771-HNC;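 note: growth inhibition of LB771-HNC human cells, read out with a cell viability assay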
Test: cells
Format: functional, cell-based, Homo sapiens
Settings: Homo sapiens, LB771-HNC
Description: SANGER: Inhibition of human LB771-HNC cell growth in a cell viability assay.

Row | Structure (SMILES) | IC50
1 | CCN(CC)CCCCNc1ncc2cc(-c3cc(OC)cc(OC)c3)c(NC(=O)NC(C)(C)C)nc2n1 [PD-173074] | > 2000 nM

Test system: HCE-T;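 note: cell viability assay read-out, reporting inhibition of HCE-T cell growth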
Test: cells
Format: functional, cell-based, Homo sapiens
Settings: Homo sapiens, HCE-T
Description: SANGER: Inhibition of human HCE-T cell growth in a cell viability assay.

Row | Structure (SMILES) | IC50
2 | CCN(CC)CCCCNc1ncc2cc(-c3cc(OC)cc(OC)c3)c(NC(=O)NC(C)(C)C)nc2n1 [PD-173074] | > 2000 nM

Test system: KALS-1;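 note: growth inhibition of KALS-1 cells, determined with a cell viability assay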
Test: cells
Format: functional, cell-based, Homo sapiens
Settings: Homo sapiens, KALS-1
Description: SANGER: Inhibition of human KALS-1 cell growth in a cell viability assay.

Row | Structure (SMILES) | IC50
3 | CCN(CC)CCCCNc1ncc2cc(-c3cc(OC)cc(OC)c3)c(NC(=O)NC(C)(C)C)nc2n1 [PD-173074] | > 2000 nM

Test system: ALL-PO;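 note: growth inhibition of ALL-PO cells, read out by a cell viability assay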
Test: cells
Format: functional, cell-based, Homo sapiens
Settings: Homo sapiens, ALL-PO
Description: SANGER: Inhibition of human ALL-PO cell growth in a cell viability assay.

Row | Structure (SMILES) | IC50
4 | CCN(CC)CCCCNc1ncc2cc(-c3cc(OC)cc(OC)c3)c(NC(=O)NC(C)(C)C)nc2n1 [PD-173074] | > 2000 nM

Test system: P30-OHK;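 note: growth inhibition of the P30-OHK cell line, read out with a cell viability assay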
Test: cells
Format: functional, cell-based, Homo sapiens
Settings: Homo sapiens, P30-OHK
Description: SANGER: Inhibition of human P30-OHK cell growth in a cell viability assay.

Row | Structure (SMILES) | IC50
5 | CCN(CC)CCCCNc1ncc2cc(-c3cc(OC)cc(OC)c3)c(NC(=O)NC(C)(C)C)nc2n1 [PD-173074] | > 2000 nM

Test system: LB831-BLC;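 note: growth inhibition of LB831-BLC cells, read out with a cell viability assay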
Test: cells
Format: functional, cell-based, Homo sapiens
Settings: Homo sapiens, LB831-BLC
Description: SANGER: Inhibition of human LB831-BLC cell growth in a cell viability assay.

Row | Structure (SMILES) | IC50
6 | CCN(CC)CCCCNc1ncc2cc(-c3cc(OC)cc(OC)c3)c(NC(=O)NC(C)(C)C)nc2n1 [PD-173074] | > 2000 nM

Test system: LS-513
Test: cells
Format: functional, cell-based, Homo sapiens
Settings: Homo sapiens, LS-513
Description: SANGER: Inhibition of human LS-513 cell growth in a cell viability assay.

Row | Structure (SMILES) | IC50
7 | CCN(CC)CCCCNc1ncc2cc(-c3cc(OC)cc(OC)c3)c(NC(=O)NC(C)(C)C)nc2n1 [PD-173074] | > 2000 nM

Test system: BV-173
Test: cells
Format: functional, cell-based, Homo sapiens
Settings: Homo sapiens, BV-173
Description: SANGER: Inhibition of human BV-173 cell growth in a cell viability assay.

Row | Structure (SMILES) | IC50
8 | CCN(CC)CCCCNc1ncc2cc(-c3cc(OC)cc(OC)c3)c(NC(=O)NC(C)(C)C)nc2n1 [PD-173074] | 846 nM

Test system: NB17;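 note: growth inhibition of NB17 cells, read out with a cell viability assay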
Test: cells
Format: functional, cell-based, Homo sapiens
Settings: Homo sapiens, NB17
Description: SANGER: Inhibition of human NB17 cell growth in a cell viability assay.

Row | Structure (SMILES) | IC50
9 | CCN(CC)CCCCNc1ncc2cc(-c3cc(OC)cc(OC)c3)c(NC(=O)NC(C)(C)C)nc2n1 [PD-173074] | > 2000 nM

Test system: LAMA-84;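 note: growth inhibition of LAMA-84 cells, read out with a cell viability assay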
Test: cells
Format: functional, cell-based, Homo sapiens
Settings: Homo sapiens, LAMA-84
Description: SANGER: Inhibition of human LAMA-84 cell growth in a cell viability assay.

Row | Structure (SMILES) | IC50
10 | CCN(CC)CCCCNc1ncc2cc(-c3cc(OC)cc(OC)c3)c(NC(=O)NC(C)(C)C)nc2n1 [PD-173074] | > 2000 nM

Test system: OMC-1;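 note: growth inhibition of the OMC-1 cell line, measured by a cell viability assay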
Test: cells
Format: functional, cell-based, Homo sapiens
Settings: Homo sapiens, OMC-1
Description: SANGER: Inhibition of human OMC-1 cell growth in a cell viability assay.

Row | Structure (SMILES) | IC50
11 | CCN(CC)CCCCNc1ncc2cc(-c3cc(OC)cc(OC)c3)c(NC(=O)NC(C)(C)C)nc2n1 [PD-173074] | > 2000 nM

Test system: D-502MG
Test: cells
Format: functional, cell-based, Homo sapiens
Settings: Homo sapiens, D-502MG
Description: SANGER: Inhibition of human D-502MG cell growth in a cell viability assay.

Row | Structure (SMILES) | IC50
12 | CCN(CC)CCCCNc1ncc2cc(-c3cc(OC)cc(OC)c3)c(NC(=O)NC(C)(C)C)nc2n1 [PD-173074] | > 2000 nM

Test system: EM-2;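 note: growth inhibition of EM-2 cells, read out with a cell viability assay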
Test: cells
Format: functional, cell-based, Homo sapiens
Settings: Homo sapiens, EM-2
Description: SANGER: Inhibition of human EM-2 cell growth in a cell viability assay.

Row | Structure (SMILES) | IC50
13 | CCN(CC)CCCCNc1ncc2cc(-c3cc(OC)cc(OC)c3)c(NC(=O)NC(C)(C)C)nc2n1 [PD-173074] | > 2000 nM

Test system: MV4-11;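 note: cell viability readout measuring growth inhibition of human MV-4-11 cells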
Test: cells
Format: functional, cell-based, Homo sapiens, MV-4-11
Settings: Homo sapiens, MV4-11
Description: SANGER: Inhibition of human MV-4-11 cell growth in a cell viability assay.

Row | Structure (SMILES) | IC50
14 | CCN(CC)CCCCNc1ncc2cc(-c3cc(OC)cc(OC)c3)c(NC(=O)NC(C)(C)C)nc2n1 [PD-173074] | > 2000 nM

Test system: DEL;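 note: growth inhibition of the human DEL cell line, read out with a cell viability assay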
Test: cells
Format: functional, cell-based, Homo sapiens
Settings: Homo sapiens, DEL
Description: SANGER: Inhibition of human DEL cell growth in a cell viability assay.

Row | Structure (SMILES) | IC50
15 | CCN(CC)CCCCNc1ncc2cc(-c3cc(OC)cc(OC)c3)c(NC(=O)NC(C)(C)C)nc2n1 [PD-173074] | > 2000 nM

Test system: SK-N-DZ;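 note: growth inhibition of the cancer cell line, read out through a viability assay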
Test: cells
Format: functional, cell-based, Homo sapiens
Settings: Homo sapiens, SK-N-DZ
Description: SANGER: Inhibition of human SK-N-DZ cell growth in a cell viability assay.

Row | Structure (SMILES) | IC50
16 | CCN(CC)CCCCNc1ncc2cc(-c3cc(OC)cc(OC)c3)c(NC(=O)NC(C)(C)C)nc2n1 [PD-173074] | > 2000 nM

Test system: LS-411N
Test: cells
Format: functional, cell-based, Homo sapiens
Settings: Homo sapiens, LS-411N

Row | Structure (SMILES) | IC50
17 | CCN(CC)CCCCNc1ncc2cc(-c3cc(OC)cc(OC)c3)c(NC(=O)NC(C)(C)C)nc2n1 [PD-173074] | > 2000 nM

Test system: HCC 2998;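 note: growth inhibition of human HCC2998 cells, measured with a cell viability read-out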
Test: cells
Format: functional, cell-based, Homo sapiens
Settings: Homo sapiens, HCC 2998
Description: SANGER: Inhibition of human HCC2998 cell growth in a cell viability assay.

Row | Structure (SMILES) | IC50
18 | CCN(CC)CCCCNc1ncc2cc(-c3cc(OC)cc(OC)c3)c(NC(=O)NC(C)(C)C)nc2n1 [PD-173074] | > 2000 nM

Test system: KNS-42;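 note: growth inhibition of KNS-42 cells, read out with a cell viability assay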
Test: cells
Format: functional, cell-based, Homo sapiens
Settings: Homo sapiens, KNS-42
Description: SANGER: Inhibition of human KNS-42 cell growth in a cell viability assay.

Row | Structure (SMILES) | IC50
19 | CCN(CC)CCCCNc1ncc2cc(-c3cc(OC)cc(OC)c3)c(NC(=O)NC(C)(C)C)nc2n1 [PD-173074] | > 2000 nM

Test system: JVM-2;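 note: growth inhibition of JVM-2 cells determined by a cell viability assay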
Test: cells
Format: functional, cell-based, Homo sapiens
Settings: Homo sapiens, JVM-2
Description: SANGER: Inhibition of human JVM-2 cell growth in a cell viability assay.

Row | Structure (SMILES) | IC50
20 | CCN(CC)CCCCNc1ncc2cc(-c3cc(OC)cc(OC)c3)c(NC(=O)NC(C)(C)C)nc2n1 [PD-173074] | > 2000 nM

Test system: SH-4;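 note: growth inhibition of SH-4 cells, read out with a cell viability assay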
Test: cells
Format: functional, cell-based, Homo sapiens
Settings: Homo sapiens, SH-4
Description: SANGER: Inhibition of human SH-4 cell growth in a cell viability assay.

Row | Structure (SMILES) | IC50
21 | CCN(CC)CCCCNc1ncc2cc(-c3cc(OC)cc(OC)c3)c(NC(=O)NC(C)(C)C)nc2n1 [PD-173074] | > 2000 nM

Test system: SNU-C2B;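 note: cell viability readout used to measure compound-driven suppression of SNU-C2B cell proliferation, IC50 marking half-maximal growth inhibition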
Test: cells
Format: functional, cell-based, Homo sapiens
Settings: Homo sapiens, SNU-C2B
Description: SANGER: Inhibition of human SNU-C2B cell growth in a cell viability assay.

Row | Structure (SMILES) | IC50
22 | CCN(CC)CCCCNc1ncc2cc(-c3cc(OC)cc(OC)c3)c(NC(=O)NC(C)(C)C)nc2n1 [PD-173074] | > 2000 nM

Test system: KARPAS-45;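 note: inhibition of cell line growth, read out through a viability assay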
Test: cells
Format: functional, cell-based, Homo sapiens
Settings: Homo sapiens, KARPAS-45
Description: SANGER: Inhibition of human KARPAS-45 cell growth in a cell viability assay.

Row | Structure (SMILES) | IC50
23 | CCN(CC)CCCCNc1ncc2cc(-c3cc(OC)cc(OC)c3)c(NC(=O)NC(C)(C)C)nc2n1 [PD-173074] | > 2000 nM

Test system: NCI-N87;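 note: growth inhibition of human NCI-N87 cells, read out with a cell viability assay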
Test: cells
Format: functional, cell-based, Homo sapiens
Settings: Homo sapiens, NCI-N87
Description: SANGER: Inhibition of human NCI-N87 cell growth in a cell viability assay.

Row | Structure (SMILES) | IC50
24 | CCN(CC)CCCCNc1ncc2cc(-c3cc(OC)cc(OC)c3)c(NC(=O)NC(C)(C)C)nc2n1 [PD-173074] | > 2000 nM

Test system: MN-60;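 note: growth inhibition of the MN-60 cell line, determined with a cell viability assay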
Test: cells
Format: functional, cell-based, Homo sapiens
Settings: Homo sapiens, MN-60
Description: SANGER: Inhibition of human MN-60 cell growth in a cell viability assay.

Row | Structure (SMILES) | IC50
25 | CCN(CC)CCCCNc1ncc2cc(-c3cc(OC)cc(OC)c3)c(NC(=O)NC(C)(C)C)nc2n1 [PD-173074] | > 2000 nM
